Test results reported in patent US20090306003A1, “Pesticide Delivery System” (priority 2006, published 2009).

Test: logP by chromatography, internally standardized with toluene and triphenylene
Type: physicochemical
Details: pH = 7
Protocol: Microblends of herbicides were prepared using melts of mixtures of nonionic block copolymer and ethoxylated surfactants. Specifically, tristyrylphenol etoxylate (Soprophor BSU, Rhodia) was used in combination with Pluronic P123 (PEO20-PPO69-PEO20), The list of the herbicides and corresponding log P values (the log P values were measured according procedure described by Donovan and Pescatore, J. Chromatography A 2002, 952, 47-61) are presented in Table 24. All log P values were measured at pH 7, except for clethodim, measured at pH 2. First, a stock blend of Pluronic P123 and Soprophor BSU was prepared by melting together 50 g of Pluronic P123 with 50 g of Soprophor BSU at 70° C. to form a clear, homogeneous melt. Composition of the copolymer/surfactant mixture was P123:Soprophor=1:1 by weight. […] The mixtures were heated at 70° C. for 10 min and shaken.

| Compound | logP Average |
| --- | --- |
| Trisulfuron-methyl | 0.510 |
| COP(=S)(OC)Oc1c(Cl)cc(C)cc1Cl [Tolclofos-methyl] | 4.418 |
